Reference: patent US8404849B2, “Processes for producing modulators of cystic fibrosis transmembrane conductance regulator” (Vertex Pharmaceuticals, priority 2010, dated 2013)

Biological target: T1, ΔF508-CFTR (Homo sapiens, UniProt P13569, DEL508-508)
T1 construct: expressed in transfected cells; host or cells: NIH3T3 mouse fibroblasts, stably expressing, cultured at 27 °C (temperature-corrected)
Experiment: Membrane potential optical assay for identification of ΔF508-CFTR potentiators (FLIPR III, forskolin activation)
Type: cell-based
Conditions: for Emax: NIH3T3, 100% efficacy is the maximum response obtained with 4-methyl-2-(5-phenyl-1H-pyrazol-3-yl)phenol, ΔF508 CFTR NIH 3T3 cells; for EC50: temperature-corrected ΔF508 CFTR NIH 3T3 cells
Source text: The assay utilizes fluorescent voltage sensing dyes to measure changes in membrane potential using a fluorescent plate reader (e.g., FLIPR III, Molecular Devices, Inc.) as a readout for increase in functional ΔF508-CFTR in NIH 3T3 cells. The driving force for the response is the creation of a chloride ion gradient in conjunction with channel activation by a single liquid addition step after the cells have previously been treated with compounds and subsequently loaded with a voltage sensing dye.
To identify potentiators of ΔF508-CFTR, a double-addition HTS assay format was developed. This HTS assay utilizes fluorescent voltage sensing dyes to measure changes in membrane potential on the FLIPR III as a measurement for increase in gating (conductance) of ΔF508 CFTR in temperature-corrected ΔF508 CFTR NIH 3T3 cells. The driving force for the response is a Cl^− ion gradient in conjunction with channel activation with forskolin in a single liquid addition step using a fluorescent plate reader such as FLIPR III after the cells have previously been treated with potentiator compounds (or DMSO vehicle control) and subsequently loaded with a redistribution dye.
Solutions • Bath Solution #1: (in mM) NaCl 160, KCl 4.5, CaCl2 2, MgCl2 1, HEPES 10, pH 7.4 with NaOH. Chloride-Free Bath Solution: Chloride Salts in Bath Solution #1 are Substituted with Gluconate Salts.
NIH3T3 mouse fibroblasts stably expressing ΔF508-CFTR are used for optical measurements of membrane potential. The cells are maintained at 37° C. in 5% CO2 and 90% humidity in Dulbecco's modified Eagle's medium supplemented with 2 mM glutamine, 10% fetal bovine serum, 1×NEAA, β-ME, 1× pen/strep, and 25 mM HEPES in 175 cm^2 culture flasks. For all optical assays, the cells were seeded at ˜20,000/well in 384-well matrigel-coated plates and cultured for 2 hrs at 37° C. before culturing at 27° C. for 24 hrs. for the potentiator assay. For the correction assays, the cells are cultured at 27° C. or 37° C. with and without compounds for 16-24 hours.

T1 sequence (P13569 with tags, fused parts or gaps DEL508-508): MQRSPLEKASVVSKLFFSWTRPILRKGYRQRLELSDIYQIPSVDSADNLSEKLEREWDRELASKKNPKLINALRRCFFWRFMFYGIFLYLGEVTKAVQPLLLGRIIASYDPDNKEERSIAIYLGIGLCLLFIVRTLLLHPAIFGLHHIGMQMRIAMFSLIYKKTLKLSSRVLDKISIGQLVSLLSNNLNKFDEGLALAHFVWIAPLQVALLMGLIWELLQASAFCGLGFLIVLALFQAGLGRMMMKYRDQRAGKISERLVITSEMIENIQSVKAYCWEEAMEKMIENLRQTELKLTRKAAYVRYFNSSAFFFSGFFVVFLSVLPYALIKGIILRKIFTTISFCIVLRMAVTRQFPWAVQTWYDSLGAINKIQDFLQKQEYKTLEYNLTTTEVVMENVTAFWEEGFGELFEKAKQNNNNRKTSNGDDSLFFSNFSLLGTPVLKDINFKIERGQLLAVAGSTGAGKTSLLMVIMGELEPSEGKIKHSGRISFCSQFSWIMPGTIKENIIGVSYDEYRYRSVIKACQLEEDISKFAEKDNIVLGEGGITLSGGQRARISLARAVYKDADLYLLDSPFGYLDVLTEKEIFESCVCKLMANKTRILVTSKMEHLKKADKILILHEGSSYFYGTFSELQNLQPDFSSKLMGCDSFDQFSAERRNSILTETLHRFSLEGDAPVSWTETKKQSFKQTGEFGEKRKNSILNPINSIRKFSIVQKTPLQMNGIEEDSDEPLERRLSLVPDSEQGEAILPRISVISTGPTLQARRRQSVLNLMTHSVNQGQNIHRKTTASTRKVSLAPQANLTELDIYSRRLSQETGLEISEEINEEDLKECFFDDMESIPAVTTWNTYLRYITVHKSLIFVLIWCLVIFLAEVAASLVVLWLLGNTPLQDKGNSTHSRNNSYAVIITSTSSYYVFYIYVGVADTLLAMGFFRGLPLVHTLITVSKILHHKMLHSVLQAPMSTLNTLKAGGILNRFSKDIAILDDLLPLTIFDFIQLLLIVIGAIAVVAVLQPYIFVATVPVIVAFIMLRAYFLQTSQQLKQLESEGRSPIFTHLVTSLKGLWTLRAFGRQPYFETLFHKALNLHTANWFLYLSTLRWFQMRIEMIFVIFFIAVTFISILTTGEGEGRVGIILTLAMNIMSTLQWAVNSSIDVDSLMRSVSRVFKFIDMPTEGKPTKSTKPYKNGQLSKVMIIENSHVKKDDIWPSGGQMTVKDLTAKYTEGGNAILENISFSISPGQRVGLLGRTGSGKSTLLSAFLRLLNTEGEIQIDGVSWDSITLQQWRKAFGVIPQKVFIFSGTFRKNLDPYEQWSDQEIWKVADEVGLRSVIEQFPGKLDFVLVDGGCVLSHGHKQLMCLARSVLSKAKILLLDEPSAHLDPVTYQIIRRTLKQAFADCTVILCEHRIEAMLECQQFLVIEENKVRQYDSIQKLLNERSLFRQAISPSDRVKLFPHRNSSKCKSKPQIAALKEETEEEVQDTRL

SMILES | Emax [%] | EC50 [nM]
O=C(Nc1ccc(N2[C@@H]3CC[C@H]2[C@H](O)C3)cc1C(F)(F)F)c1c[nH]c2cccc(C(F)(F)F)c2c1=O (relative stereo) [Compound 1b] | > 100 | < 2000
O=C(Nc1ccc(N2C3CCC2[C@H](O)C3)cc1C(F)(F)F)c1c[nH]c2cccc(C(F)(F)F)c2c1=O (stereo partly drawn) [Compound 1a] | 25 to 100 | < 2000
O=C(Nc1ccc(N2C3CCC2CC3)cc1C(F)(F)F)c1c[nH]c2cccc(C(F)(F)F)c2c1=O [Formula II, N-(4-(7-azabicyclo[2.2.1]heptan-7-yl)-2-(trifluoromethyl)phenyl)-4-oxo-5-(trifluoromethyl)-1,4-dihydroquinoline-3-carboxamide] | 25 to 100 | < 2000
